The text below walks through data of patent US5461046A, “1-,2-,3-,4-,5-,6-,7-,8-, and/or 9-substituted dibenzoxazepine compounds, pharmaceutical compositions and methods for treating pain” (G. D. Searle & Co., priority 1993, dated 1995).

Assay [1] deals with phenylbenzoquinone (PBQ)-induced writhing in mice. The assay can be described thus: Writhing Assay (phenylbenzoquinone-induced writhing, analgesia). It counts as in vivo, Charles River male albino mice. The following applies: for responders at 30 mg/kg: Mus musculus, 25 min, 25 min before PBQ i.p., number of mice out of ten with analgesia. The source says:
The Writhing Assay is one of the most widely-used experimental procedures for measuring the analgesic activity of different narcotic and nonnarcotic analgesic agents, and involves the continuous, chemically-induced pain of visceral origin to an animal, such as a mouse or rat. [Gyires et al., Arch. int. Pharmacodyn, 267, 131-140 (1984); C. Vander Wende et al., Fed. Proc., 15, 494 (1956); Koster et al., Fed. Proc., 18, 412 (1959); and Witken et al., J. Pharmacol. exp. Ther., 133, 400-408 (1961).] Chemicals which may be used to induce this pain include phenylbenzoquinone (PBQ) and acetic acid. As a result of the chemical irritation to the animal, a characteristic stretching and writhing of the animal (dorsiflexion of the animal's back, extension of its hindlimbs and the strong contraction of its abdominal musculature) will generally occur. […] Drugs which reduce the number of writhes of the animal appear to restore the normal nociceptive threshold of the animal.
Charles River male albino mice, weighing 20 to 30 grams were used in this assay.
Twenty-five minutes after subcutaneous or intragastric administration to ten mice of 30 mg per kilogram of body weight of a compound of the present invention ("test compound"), […] per 10 g of body weight of a 0.025% w/v solution of PBQ was injected intraperitoneally into each mouse. Ten mice which were given saline in place of a test compound of the invention were used as a control group.
Five minutes later, each mouse was individually placed into a glass beaker for observation, and the number of writhes occurring during the following ten-minute period was counted.
A test compound was considered to have produced analgesia in a mouse if, in accordance with the conditions set forth above, and under the test criteria employed for this assay, after the administration of 30 mg per kilogram of body weight of a compound of the present invention to the mouse, the number of writhes elicited by a mouse injected with PBQ was equal to, or less than, one-half the median number of writhes recorded for the saline-treated control group of mice that day, as described by Taber in "Predictive Value of Analgesic Assays in Mice and Rats," Advances in Biochemical Psychopharmacology, 8, 191 (1974).
The results for the particular compounds of the present invention analyzed in this assay, and discussed in the examples identified below which correspond thereto, are presented in Table 2 hereinbelow under the heading "WRITHING ASSAY." The fractions indicate the number of mice out of ten in which a test compound produced analgesia.
On the technique in general: In writhing tests, fewer writhes than in controls are read as antinociception.

In assay [2] the target is T1, prostaglandin E2-induced contractions of segments of guinea pig ileum (Cavia porcellus, UniProt A0A286XHJ6).
T1 construct: The ilea were then quickly removed from the guinea pigs; from tissue; host or cells: ileum segments of male albino guinea pigs
T1 sequence (A0A286XHJ6 1-405): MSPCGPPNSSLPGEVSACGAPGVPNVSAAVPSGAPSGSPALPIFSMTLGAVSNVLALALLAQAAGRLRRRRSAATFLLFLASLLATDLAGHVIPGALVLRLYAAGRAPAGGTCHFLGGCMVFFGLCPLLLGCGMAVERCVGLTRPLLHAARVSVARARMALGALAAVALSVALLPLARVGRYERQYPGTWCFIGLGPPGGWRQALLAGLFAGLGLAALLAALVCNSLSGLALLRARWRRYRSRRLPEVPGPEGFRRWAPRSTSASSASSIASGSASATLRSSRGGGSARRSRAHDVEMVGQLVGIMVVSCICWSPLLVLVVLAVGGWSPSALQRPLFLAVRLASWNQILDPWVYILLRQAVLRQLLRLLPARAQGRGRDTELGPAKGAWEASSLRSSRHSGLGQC
The assay can be described thus: Prostaglandin (PGE) Antagonism Assay in guinea pig ileum. The following applies: initial concentration 3 micromolar; estimated pA2 (slope -1.0 assumed) or Schild plot pA2. The protocol:
In order to determine the effectiveness of several of the compounds of the present invention ("test compounds") as prostaglandin E2 antagonists,a prostaglandin antagonism assay was conducted, as described below, to determine the ability of these compounds to inhibit prostaglandin E2 -induced contractions of segments of guinea pig ileum.
Male albino guinea pigs weighing 200 to 500 grams were sacrificed by cervical dislocation. The ilea were then quickly removed from the guinea pigs and placed in a modified Tyrode solution, a solution which is known to those skilled in the art, containing one-half of the usual amount of magnesium ions.
Segments of ileum about 2 cm long were then cut and mounted in a 10-mL tissue bath containing the modified Tyrode solution. The solution was maintained at 37° C. and aerated with a gaseous mixture of 95% oxygen and 5% carbon dioxide. Data for a control prostaglandin E2 dose response curve plotting concentration of prostaglandin E2 versus the intensity of contractions, detected isotonically, was then obtained by experimentally adjusting the dose of the prostaglandin E2 being injected into the tissue bath, in a manner known by those of skill in the art.
Solutions or suspensions containing an initial concentration (3 micromolar) of a test compound in modified Tyrode solution ("test solutions/suspensions") were then separately substituted for the control bath solution. Each test solution/suspension was then kept in constant contact with the ileum tissue, except for brief periods to drain the bath in preparation for rinsing with fresh test solution/suspension. A second prostaglandin E2 dose response curve was then generated for prostaglandin E2 in the presence of a test compound.
A dose ratio of EC50 doses was then calculated from the results of each test in a manner known by those of skill in the art. A test compound was determined to be "active" if the initial concentration used yielded at least a two-fold shift (dose ratio greater than or equal to 2) in the dose response curve for prostaglandin E2.
The compounds of the present invention which were tested in this assay, and for which results are presented in Table 2, correspond to the particular examples specified in Table 2.

The test system of assay [3] is stimulant actions of prostaglandins on isolated smooth muscle preparations. The following applies: cited from earlier work.
Assay [4] has as its system micturition reflex in rats. The settings on record: urethane-anesthetized rats; cited from earlier work.
[5] abbreviates: ip, 30 mg per kg i.g., read-out: WRITHING ASSAY Number Out of Ten I.G. (converted).
[6] abbreviates: sc, 30 mg per kg s.c., read-out: WRITHING ASSAY Number Out of Ten S.C.

SMILES strings stand for the structures. Where two headings read alike, the source gives them in different places.

The Kb is the affinity of an antagonist, worked out from how it opposes an agonist.

In the case of `CCN(CC)c1ccc2c(c1)N(C(=O)NNC(=O)CCS(=O)(=O)CC)Cc1ccccc1O2` [Example 15, 8-(diethylamino)dibenz[b,f][1,4]oxazepine-10(11H)-carboxylic acid, 2-[3-(ethylsulfonyl)-1-oxopropyl]hydrazide], the responders at 30 mg/kg was 30% in assay [1] (setting [5]) and 10% in assay [1] (setting [6]). For the same compound, in assay [2], the Kb was 0.708 µM.

Consider `CCS(=O)(=O)CCC(=O)NNC(=O)N1Cc2ccccc2Oc2ccc(OC)cc21` [Example 16, 8-methoxydibenz[b,f][1,4]oxazepine-10(11H)-carboxylic acid, 2-[3-(ethylsulfonyl)-1-oxopropyl]hydrazide], for which the responders at 30 mg/kg is 60% in assay [1] (setting [5]) and 20% in assay [1] (setting [6]). Moreover, in assay [2], the Kb was 2 µM.

Turning to `CCS(=O)(=O)CCC(=O)NNC(=O)N1Cc2ccccc2Oc2ccc(C)cc21` [Example 17, 8-methyldibenz[b,f][1,4]oxazepine-10(11H)-carboxylic acid, 2-[3-(ethylsulfonyl)-1-oxopropyl]hydrazide], the responders at 30 mg/kg in assay [1] (setting [5]) was 22.2%; in assay [1] (setting [6]) it was 20%. The Kb in assay [2] was 2.09 µM.

For `CCS(=O)(=O)CCC(=O)NNC(=O)N1Cc2cccc(Cl)c2Oc2ccccc21` [Example 18, 4-chlorodibenz[b,f][1,4]oxazepine-10(11H)-carboxylic acid, 2-[3-(ethylsulfonyl)-1-oxopropyl]hydrazide], the responders at 30 mg/kg in assay [1] (setting [5]) and in assay [1] (setting [6]) was 40% in each case. Further, the Kb in assay [2] was 2.69 µM.

As to `CCS(=O)(=O)CCC(=O)NNC(=O)N1Cc2ccccc2Oc2ccc(O)cc21` [Example 19, 8-hydroxydibenz[b,f][1,4]oxazepine-10(11H)-carboxylic acid, 2-[3-(ethylsulfonyl)-1-oxopropyl]hydrazide], the figures for the responders at 30 mg/kg in assay [1] (setting [5]) and in assay [1] (setting [6]) were 40% and 30%, respectively. Moreover, the Kb in assay [2] is 2.57 µM.

For the compound `CCS(=O)(=O)CCC(=O)NNC(=O)N1Cc2ccccc2Oc2ccc(C(F)(F)F)cc21` [Example 20, 8-(trifluoromethyl)dibenz[b,f][1,4]oxazepine-10(11H)-carboxylic acid, 2-[3-(ethylsulfonyl)-1-oxopropyl]hydrazide], the “potency in the Writhing Assay (in words)” value in assay [1] (30 mg per kg s.c. or i.g.) is “most potent compound of the invention tested in this assay”. For the same compound, the responders at 30 mg/kg in assay [1] (setting [5]) and in assay [1] (setting [6]) was 60% in each case. Besides, the Kb in assay [2] is 1.26 µM.

With `CCS(=O)(=O)CCC(=O)NNC(=O)N1Cc2ccccc2Oc2ccccc21` [Example 21, Dibenz[b,f][1,4]oxazepine-10(11H)-carboxylic acid, 2-[3-(ethylsulfonyl)-1-oxopropyl]hydrazide], the responders at 30 mg/kg in assay [1] (setting [5]) was 50%; in assay [1] (setting [6]), 10%. For the same compound, the Kb in assay [2] was 1.05 µM.

Turning to `O=C(Cc1ccccc1)NNC(=O)N1Cc2ccccc2Oc2ccc(Cl)cc21` [SC-18637], the “inhibition of stimulant actions of prostaglandins” value in assay [3] is “inhibit the stimulant actions of prostaglandins on isolated smooth muscle preparations”.

As for `CC(=O)NNC(=O)N1Cc2ccccc2Oc2ccc(Cl)cc21` [SC-19220], in assay [4], the bladder capacity entry was “increased” and the “voiding efficiency of micturition” value is given as “reduced”. In assay [3], the “inhibition of stimulant actions of prostaglandins” value was “inhibit the stimulant actions of prostaglandins on isolated smooth muscle preparations”.
